From patent US20250188133A1, “CHIMERIC BACTERIOCINS AND METHOD FOR THE CONTROL OF PSEUDOMONAS” (priority 2022, published 2025)

Columns and labels:
P. aeruginosa ATCC 27853 = experiment: murine lung colonization and treatment (CD1 mice); format: in vivo; settings: 5 h post infection
Procedure: CD1 male mice were supplied by Charles River (Margate, UK) and were specific pathogen free. Mice were 11 to 15 g on receipt at the facility and were allowed to acclimatize for at least 7 days.
P. aeruginosa ATCC 27853 was recovered from long-term storage (−80° C.) and cultured on cystine-lactose-electrolyte-deficient (CLED) agar at 37° C. under aerobic conditions for approximately 16-24 h. 20 ml of Mueller Hinton broth was inoculated with a single well isolated colony and cultured overnight at 37° C. with shaking at 300 rpm65. The overnight broth was diluted 1:100 in Mueller Hinton broth and 100 ml was cultured in a baffle flask for ˜6 h at 37° C. with shaking at 300 rpm until the broth OD was ˜0.6 (˜mid-exponential phase). 20 ml of culture was centrifuged at 2465 g for 10 minutes and washed in PBS. The pellet was suspended in PBS and the OD600 adjusted to 0.67 (˜2.6×10^8 CFU/ml). The study inoculum was prepared from this by appropriate dilution with PBS. The inoculum concentration was confirmed by quantitative culture on Pseudomonas Selective Agar (PSA). The inoculum concentration for the study was 1.47×10^7 CFU/ml (5.87×10^5 CFU/mouse).
Mice were infected under temporary inhaled 3% isoflurane anesthesia by intranasal (IN) instillation with 40 μl of the inoculum suspension split as 20 μl/nostril.
1 hour post infection 6 mice were sacrificed in order to evaluate the pre-treatment burden in lungs. Treatments were administered IN once at 1 h post infection (50 μl split to 25 μl/nares). Three treatment groups consisting of six mice each were administered S5-PmnH (2.5, 25 and 250 μg). The fourth group of mice (n=6) was administered 200 μg Tobramycin (40 mg/ml injection solution, Hospira UK Ltd, diluted 10 times). The study was terminated at 5 hours post infection for all animals. The clinical conditions and weights were assessed and animals were immediately euthanized using an overdose of pentobarbitone. Following confirmation of death, the lungs were excised and homogenized in ice cold sterile phosphate buffered saline using a Precellys bead beater. The homogenates were quantitatively cultured onto PSA agar and incubated at 37° C. for 24 hours before colonies were counted.

P. aeruginosa ATCC 19660 = experiment: murine keratitis model, cytotoxic strain (C57BL/6 mice); format: in vivo
Procedure: (§1) The inbred mice of C57BL/6 strain of both sexes in equivalent numbers were used for the research. 2-6 months old, adult female and adult male mice were purchased from the Vilnius University vivarium of laboratory animals. The animals throughout the period of the experiment were given standard chow and drinking water ad libitum. Animals were housed in the individual plastic cages in a 12 h light/dark cycle at 21-23° C. All regulated procedures on living animals were approved by The Lithuanian Ethics Committee of Biomedical Research (Protocol no. B1-442) and were carried out in accordance with the European Union legislation of OECD (directive 2010/63/EU). The experiments were carried out in Biological research center of Lithuanian University of Health Sciences.
(§2) For P. aeruginosa infection and keratitis induction the mice were anesthetized by Ketamine and Xylazine 90:9 mg/kg intraperitoneal injection. The cornea of the left eye of each mouse was visualized under a stereoscopic microscope, and three 1 mm scratches were made using a sterile 25 gauge needle. A 10 μL aliquot containing 4×10^6 cells of P. aeruginosa ATCC 19660 (cytotoxic strain) or PAO1 ATCC 15692 (invasive strain) was applied to the corneal surface. Depending on the experiment, the treatment was started 30 min or 6 h post infection. 10 μl aliquot containing 0.14 mg of tobramycin or 20 μg of S5-PmnH (both containing 0.5% hydroxypropyl methylcellulose (HPMC)) or PBS containing 0.5% HPMC was applied as one drop of substance to the each eye. HPMC is used as artificial tears and was used in order to thicken the tears film and prolong the presence of the applied product on the surface of the cornea. The treatment was continued for five days twice daily. Mice were euthanized by cervical dislocation 1, 3, 5 days post infection, and the eyeballs were collected and homogenized for viable bacteria count.
(§3) The eyes were examined and photographed with a dissection microscope equipped with a digital camera at 1, 3 and 5 dpi to monitor the disease progression. At 1, 3 and 5 dpi disease severity was visually graded by using an established corneal damage scale: 0, the pupil was partially or fully covered by clear or slight opacity; +1, the anterior segment was partially or fully covered by slight opacity; +2, the pupil was partially or fully covered by dense opacity; +3, the entire anterior segment was covered by dense opacity; and +4, corneal perforation^40.
(§4) Histopathology experiments were carried out at Lithuanian University of Health Sciences, Department of Veterinary Pathobiology of Veterinary Academy. One randomly chosen mice of each study group was used for histopathology experiments. Enucleated eyes were preserved in 10% formaldehyde. Eyes were paraffin-embedded, cut into 3-μm-thick sections, deparaffinised, rehydrated and used for preparation of hematoxylin/eosin stained samples.

P. aeruginosa PAO1 = experiment: murine keratitis model, invasive strain (C57BL/6 mice); format: in vivo
Procedure: as §1, §2, §3, §4

P. aeruginosa strains = experiment: agar disc-diffusion assay, panel of 25 strains; format: cell-based; settings: panel of 25 P. aeruginosa strains, in words
Procedure: (§5) Overnight P. aeruginosa cultures grown in CAA medium were equalized till OD595=1.0 in CAA and diluted 100×. Sterile cotton swab was briefly submerged in diluted microbial suspension, removing the excess of liquid by pressing it against the container wall. The swab was used for evenly streaking bacteria on plates containing growth medium with CAA solid agar (1.5%). 6 mm diameter sterile Whatman discs were placed on soft-agar and 0.3-30 μg of chimeric pyocins were spotted to paper disks. The plates were incubated overnight at 37° C. and bacteriocin inhibition zones were observed.
(§6) Next, all 25 P. aeruginosa strains were subjected to agar disc-diffusion assay by spotting different amounts of purified pyocin S5 (0.3 μg, 3 μg and 30 μg) on bacteria lawns. Six P. aeruginosa strains were resistant to pyocin S5. Four of these six strains were pyocin S5 and immunity protein-encoding strains—PA14, PAO1, […] and NCTC 13921. Two cystic fibrosis isolates, 12-35708 and 12-29165 were also completely resistant to pyocin S5, despite the absence of S5, or S5 immunity protein coding genes. […] Turbid inhibition zones were detected when 3 μg and 30 μg of S5 were spotted on the lawn of these strains (Table 1, FIG. 3).

P. aeruginosa A19 = experiment: agar disc-diffusion assay; format: cell-based; settings: strain A19; 0.3, 3 and 30 μg of protein spotted on discs on CAA agar lawn, overnight
Procedure: as §5, §6

[1] = tested on: P. aeruginosa Boston 41501 (ATCC 27853); experiment: agar disc-diffusion assay; format: cell-based; settings: strain Boston; 0.3, 3 and 30 μg of protein spotted on discs on CAA agar lawn, overnight
Procedure: as §5, §6

P. aeruginosa Pr335 = experiment: agar disc-diffusion assay; format: cell-based; settings: strain Pr335; 0.3, 3 and 30 μg of protein spotted on discs on CAA agar lawn, overnight
Procedure: as §5, §6

P. aeruginosa NCTC 13921 = experiment: agar disc-diffusion assay; format: cell-based; settings: strain NCTC 13921; 0.3, 3 and 30 μg of protein spotted on discs on CAA agar lawn, overnight
Procedure: as §5, §6

P. aeruginosa HP6 = experiment: agar disc-diffusion assay; format: cell-based; settings: strain HP6; 0.3, 3 and 30 μg of protein spotted on discs on CAA agar lawn, overnight
Procedure: as §5, §6

P. aeruginosa HP40 = experiment: agar disc-diffusion assay; format: cell-based; settings: strain HP40; 0.3, 3 and 30 μg of protein spotted on discs on CAA agar lawn, overnight
Procedure: as §5, §6

[2] = treatment started 30 min post infection

Molecule: NC[C@H]1O[C@H](O[C@H]2[C@H](O)[C@@H](O[C@H]3O[C@H](CO)[C@@H](O)[C@H](N)[C@H]3O)[C@H](N)C[C@@H]2N)[C@H](N)C[C@@H]1O [tobramycin, reference compound]
- reduction of lung burden vs vehicle (P. aeruginosa ATCC 27853; 200 μg/mouse IN once 1 h post infection): 2.75 log10 CFU/g
- reduction of burden below the level of stasis (pre-treatment) (P. aeruginosa ATCC 27853; 200 μg/mouse IN once): 1.23 log10 CFU/g
- histopathology of infected treated eyes (P. aeruginosa ATCC 19660; [2]): Only weak oedema in the corneal stroma
- signs of disease (visual inspection, clinical score) (P. aeruginosa ATCC 19660; [2]): No signs of disease were observed in majority of samples
- viable bacteria isolated from infected eyes (P. aeruginosa ATCC 19660; treatment started 30 min post infection, twice daily, 1, 3 or 5 dpi, 20 μg S5-PmnH or 0.14 mg tobramycin per eye): no viable P. aeruginosa were isolated
- viable bacteria isolated (P. aeruginosa ATCC 19660; treatment started 6 h post infection, 1, 3 or 5 dpi): no viable bacteria were isolated
- clinical score evaluation (P. aeruginosa ATCC 19660; treatment started 6 h post infection, 1 and 3 dpi, two S5-PmnH-treated and one tobramycin-treated mice): Only mild disease signs were observed
- histopathology of infected treated eyes (P. aeruginosa ATCC 19660; treatment started 6 h post infection, 3 and 5 dpi): slight thickening of epithelium
- clinical score evaluation (P. aeruginosa ATCC 19660; treatment started 6 h post infection, 5 dpi): all corneas were completely clear
- histological examination of infected treated eyes (P. aeruginosa PAO1; 1 dpi): signs of acute inflammation of cornea
- histological examination of infected treated eyes (P. aeruginosa PAO1; 3 dpi): thinning of cornea epithelium and strong edema of the corneal stroma
- histological examination of infected treated eyes (P. aeruginosa PAO1; day 5): local inflammation of cornea, thinning and degeneration of cornea epithelium
- average reduction of bacterial burden vs mock-treated (P. aeruginosa PAO1; treatment started 6 h post infection, 1 dpi): 1.42 log 10 CFU/cornea
- mice from which no viable bacteria were isolated (P. aeruginosa PAO1; treatment started 6 h post infection, 3 dpi, three mice per group): three
- viable bacteria in cornea, individual mice (P. aeruginosa PAO1; treatment started 6 h post infection, 5 dpi, mice with bacteria): 2.8 log 10 CFU/cornea
- mice from which no bacteria were isolated (P. aeruginosa PAO1; treatment started 6 h post infection, 5 dpi, three mice per group): two

B1: S5-Pflu794: chimeric bacteriocin SEQ ID NO: 17: pyocin S5 first segment fused to P. fluorescens Pflu794 killing domain (protein)
chain: MSNDNEVPGSMVIVAQGPDDQYAYEVPPIDSAAVAGNMFGDLIQREIYLQKNIYYPVRSIFEQGTKEKKEINKKVSDQVDGLLKQITQGKREATRQERVDVMSAVLHKMESDLEGYKKTFTKGPFIDYEKQSSLSIYEAWVKIWEKNSWEERKKYPFQQLVRDELERAVAYYKQDSLSEAVKVLRQELNKQKALKEKEDLSQLERDYRTRKANLEMKVQSELDQAGSALPPLVSPTPEQWLERATRLVTQAIADKKQLQTTNNTLIKNSPTPLEKQKAIYNGELLVDEIASLQARLVKLNAETTRRRTEKASDQANNVDIEEAILFTTTFYENLTEKYGEKVSAVAKELAESAKGKTMRSSKEALQTFEKYKDTYNGRFRSRDRREVDRALKSLDKELLSKNLAKFSKAFGSVSKIGDLTEVFIELENSIRTGDWKPLLLTLEGIGLGMAGTYLVAAVFGISATTPLGIVVFAVLMAATSAYIDDDLVKKVNKDLFGF
modifications: S5-Pflu794
- activity spectrum / profile in agar disc diffusion assay (P. aeruginosa strains): only week activity on 6 tested strains
- Activity in agar disc-diffusion assay (P. aeruginosa A19): *** (activity detected with 0.3 μg of protein)
- Activity in agar disc-diffusion assay [1]: * (activity detected only with 30 μg of protein)
- Activity in agar disc-diffusion assay (P. aeruginosa Pr335): ** (activity detected with 3 μg of protein)
- Activity in agar disc-diffusion assay (P. aeruginosa NCTC 13921): * (activity detected only with 30 μg of protein)
- Activity in agar disc-diffusion assay (P. aeruginosa HP6): * (activity detected only with 30 μg of protein)
- Activity in agar disc-diffusion assay (P. aeruginosa HP40): * (activity detected only with 30 μg of protein)
